{"source": "patent US20220408777A1", "about": "“FOOD COMPOSITION FOR PREVENTING AND AM[…] […] NONI AND METHOD FOR PREPARING SAME” (NSTBIO. CO., LTD., priority 2020, published 2022)", "key": {"[1]": {"test_system": "C57BL/KsJ db/db diabetic mice", "assay": "Oral glucose tolerance test (OGTT)", "type": "in vivo", "conditions": "db/db mice after 6 weeks oral administration, Noni 100 mg/kg, Metformin 200 mg/kg; for blood glucose decreased (OGTT): glucose 3.0 g/kg oral", "experimental": "(§1) An administration sample administered to a diabetic model positive control was a Metformin Tab (metformin hydrochloride, JRP), which is a diabetic drug. A dose was 200 mg/kg body weight of a mouse (denoted as Metformin 200 mg/kg).\n(§2) An administration sample administered to a diabetic model fermented noni group was a food composition containing the fermented noni obtained in Example 1. A dose was 100 mg/kg body weight of a mouse (denoted as Noni 100 mg/kg).\n(§3) As for the administration method, each administration sample was dissolved in 0.5% carboxymethyl cellulose (CMC) for each dose and orally administered once a day for 6 weeks.\nAfter the completion of oral administration for 6 weeks, an oral glucose tolerance test (OGTT) was performed.\nAfter experimental animals were fasted for 12 hours, fasting blood glucose was measured by collecting blood from the tail vein, and then a 50% glucose solution (3.0 g/kg of B.W) was orally administered to all groups, and after 30 minutes, 60 minutes, 120 minutes and 180 minutes, blood glucose was measured using a glucometer."}, "[2]": {"test_system": "C57BL/KsJ db/db diabetic mice", "assay": "Measurement of fasting blood glucose (in vivo efficacy test for blood glucose lowering)", "conditions": "oral once a day, Noni 100 mg/kg, Metformin 200 mg/kg", "experimental": "as §1, §2, §3\nThe fasting blood glucose of the experimental animals was measured once a week for 6 weeks using a glucometer. Fasting blood glucose was measured at 1-week (7-day) intervals for 6 weeks (42 days) for each experimental group."}}, "note": "Structures can show the parent of a compound that is named as a salt.", "data": [{"smiles": "CN(C)C(=N)N=C(N)N", "note": "[Metformin, metformin hydrochloride]", "values": [{"measurement": "AUC value decreased (OGTT area under curve)", "setting": "[1]; compared to db/db control, FIG. 4", "result": 23.3, "unit": "%"}, {"measurement": "blood glucose decreased (OGTT)", "setting": "[1]; at 2 hr, compared to db/db control", "result": 22.9, "unit": "%"}, {"measurement": "blood glucose decreased (OGTT)", "setting": "[1]; at 3 hr, compared to db/db control", "result": 28.5, "unit": "%"}, {"measurement": "blood glucose decreased (OGTT)", "setting": "[1]; from 1 hr, compared to blood glucose increased at 0.5 hr in db/db control", "result": 33.1, "unit": "%"}, {"measurement": "decrease in fasting blood glucose", "setting": "[2]; after 6 weeks", "result": 34, "unit": "%"}, {"measurement": "fasting blood glucose", "setting": "[2]; for 1 to 6 weeks, FIG. 2", "result": "consistently low"}]}]}
